Experimental data as given in patent publication US20240150340A1, “CDK Inhibitors And Their Use As Pharmaceuticals” (Prelude Therapeutics Incorporated, priority 2022, published 2024).

Experiments:
CDK2/Cyclin E2 = target: T1, CDK2/Cyclin E2 (Homo sapiens, UniProt P24941); experiment: CDK2/CyclinE2 Enzymatic Activity Assay (TR-FRET); type: biochemical; settings: ATP 1 mM final, read-out: CDK2_E1 IC50
T1 construct: Recombinant protein complex CDK2/Cyclin E2, expressed from insect cell, was purchased from ProQinase
In short: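 Recombinant insect-cell CDK2/Cyclin E2 (1 nM) phosphorylated ULight-4E-BP1 (50 nM) with 1 mM ATP in HEPES pH 7.4 buffer, after 20 min compound preincubation; MgCl2 (10 mM) started the 45 min reaction at 37° C. Europium anti-phospho-4E-BP1 TR-FRET read; 9-dose IC50 by 4-parameter fit.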

OVCAR3 p-RB = experiment: pRB ICW Assay in OVCAR3 Cells; type: cell-based; settings: Homo sapiens, OVCAR-3, incubated with compound for 2 hours
In short: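 In-Cell Western on OVCAR3: phospho-RB antibody signal with DRAQ5 counterstain read at 700 and 800 nm after fixation. Compounds were applied for 2 h at 37° C. as 9-point ½-log dilutions in duplicate; 10 μM reference compound defined full inhibition.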

CDK4/Cyclin D1 = target: T2, CDK4/Cyclin D1 (Homo sapiens, UniProt P11802); experiment: CDK4/CyclinD1 Enzymatic Activity Assay (TR-FRET); type: biochemical; settings: ATP 2 mM final, read-out: CDK4_D1 IC50
T2 construct: purchased ProQinase; host or cells: insect cell
T2 sequence (P11802 whole entry): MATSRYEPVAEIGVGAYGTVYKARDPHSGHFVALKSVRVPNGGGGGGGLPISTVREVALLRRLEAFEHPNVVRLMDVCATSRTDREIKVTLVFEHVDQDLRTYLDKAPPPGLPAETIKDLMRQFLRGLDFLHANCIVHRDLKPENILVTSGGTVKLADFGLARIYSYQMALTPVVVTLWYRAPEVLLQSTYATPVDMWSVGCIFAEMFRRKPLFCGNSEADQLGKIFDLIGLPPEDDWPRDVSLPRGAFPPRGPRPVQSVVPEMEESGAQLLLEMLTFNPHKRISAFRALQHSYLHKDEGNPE
T2 sequence (P24385 whole entry partner): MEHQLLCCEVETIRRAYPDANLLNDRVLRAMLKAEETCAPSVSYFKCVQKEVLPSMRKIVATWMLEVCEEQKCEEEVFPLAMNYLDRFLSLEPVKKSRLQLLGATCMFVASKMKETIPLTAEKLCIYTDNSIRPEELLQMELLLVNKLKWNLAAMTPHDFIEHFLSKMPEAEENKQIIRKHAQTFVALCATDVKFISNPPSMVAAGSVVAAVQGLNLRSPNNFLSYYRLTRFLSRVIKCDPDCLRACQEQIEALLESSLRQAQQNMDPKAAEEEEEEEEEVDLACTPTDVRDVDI
Protocol: CDK4/CyclinD1 Enzymatic Activity Assay
The inhibitory activity of compounds was evaluated in vitro using TR-FRET assay with white 384-well low volume microplate (Greiner Bio-One). CDK4/Cyclin D1 catalyzed phosphorylation of peptide in the presence and absence of compounds was measured and used in IC50 determination. Recombinant protein complex CDK4/Cyclin D1, expressed from insect cell, was purchased from ProQinase. Testing compounds were dissolved in DMSO at 1 mM and tested in 9-dose IC50 mode. The reaction mixture was prepared by mixing CDK4/CyclinD1 (1 nM final), ULight-4E-BP1 (100 nM final, Perkinelmer, TRF0128-D), and ATP (2 mM final) in assay buffer (20 mM of HEPES pH 7.4, 1 mM of EGTA, 0.05% BSA, 0.005% Tween 20, and 1 mM TCEP). The compound of interest in DMSO was added to each well in 3-fold serial dilution by the dispenser (TECAN D300E) to make a 9.9 μL of reaction mixture. After 20 minutes preincubation at room temperature, 0.1 μL MgCl2 (10 mM final) was added to initiate the reaction. Following a 45-minute incubation at 37° C., the reaction was stopped by addition of 2 μL of quenching buffer consisting of Lance detection buffer (Perkinelmer CR97-100C), LANCE Ultra Europium-anti-P-4E-BP1 (Perkinelmer, TRF0216-D), EDTA, and incubated at room temperature for additional 60 minutes in dark. The reaction signal was measured by Envision multimode plate reader (PerkinElmer, 2102-0010). IC50 values were determined by fitting the data to the standard 4 parameters with Hill Slope using GraphPad Prism software.

IC50 (CDK2/Cyclin E2)	IC50 (OVCAR3 p-RB)	IC50 (CDK4/Cyclin D1)	SMILES
≤ 100 nM	100 to 500 nM	≤ 100 nM	Cc1sc(-c2nc(N[C@H]3CCN(S(=O)(=O)c4c[nH]cn4)C[C@H]3C)ncc2C(F)(F)F)cc1C(N)=O [Example 25, 5-(2-(((3R,4S)-1-((1H-imidazol-4-yl)sulfonyl)-3-methylpiperidin-4-yl)amino)-5-(trifluoromethyl)pyrimidin-4-yl)-2-methylthiophene-3-carboxamide]
≤ 100 nM	≤ 100 nM	≤ 100 nM	Cc1cnc(-c2nc(N[C@H]3CCN(S(=O)(=O)c4cnn(C)c4)C[C@H]3F)ncc2C(F)(F)F)s1 [Example 26, N-((3R,4S)-3-fluoro-1-((1-methyl-1H-pyrazol-4-yl)sulfonyl)piperidin-4-yl)-4-(5-methylthiazol-2-yl)-5-(trifluoromethyl)pyrimidin-2-amine]
≤ 100 nM	100 to 500 nM	≤ 100 nM	Cc1cnc(-c2nc(N[C@@H]3CCN(S(=O)(=O)c4cnn(C)c4)C[C@H]3F)ncc2C(F)(F)F)s1 [Example 27, N-((3R,4R)-3-fluoro-1-((1-methyl-1H-pyrazol-4-yl)sulfonyl)piperidin-4-yl)-4-(5-methylthiazol-2-yl)-5-(trifluoromethyl)pyrimidin-2-amine]
≤ 100 nM	≤ 100 nM	≤ 100 nM	Cc1cnc(-c2nc(N[C@H]3CCN(S(=O)(=O)c4cn(C)cn4)C[C@H]3F)ncc2C(F)(F)F)s1 [Example 28, N-((3R,4S)-3-fluoro-1-((1-methyl-1H-imidazol-4-yl)sulfonyl)piperidin-4-yl)-4-(5-methylthiazol-2-yl)-5-(trifluoromethyl)pyrimidin-2-amine]
≤ 100 nM	100 to 500 nM	≤ 100 nM	Cc1cnc(-c2nc(N[C@@H]3CCN(S(=O)(=O)c4cn(C)cn4)C[C@H]3F)ncc2C(F)(F)F)s1 [Example 29, N-((3R,4R)-3-fluoro-1-((1-methyl-1H-imidazol-4-yl)sulfonyl)piperidin-4-yl)-4-(5-methylthiazol-2-yl)-5-(trifluoromethyl)pyrimidin-2-amine]
≤ 100 nM	≤ 100 nM	≤ 100 nM	Cc1sc(-c2nc(N[C@H]3CCN(S(=O)(=O)c4cnn(C)c4)C[C@H]3F)ncc2C(F)(F)F)cc1C#N [Example 30, 5-(2-(((3R,4S)-3-fluoro-1-((1-methyl-1H-pyrazol-4-yl)sulfonyl)piperidin-4-yl)amino)-5-(trifluoromethyl)pyrimidin-4-yl)-2-methylthiophene-3-carbonitrile]
≤ 100 nM	≤ 100 nM	≤ 100 nM	Cc1sc(-c2nc(N[C@H]3CCN(S(=O)(=O)c4cn(C)cn4)C[C@H]3F)ncc2C(F)(F)F)cc1C#N [Example 31, 5-(2-(((3R,4S)-3-fluoro-1-((1-methyl-1H-imidazol-4-yl)sulfonyl)piperidin-4-yl)amino)-5-(trifluoromethyl)pyrimidin-4-yl)-2-methylthiophene-3-carbonitrile]

Further lines, the compound ahead of its results:

SMILES	IC50 (CDK2/Cyclin E2)	IC50 (OVCAR3 p-RB)	IC50 (CDK4/Cyclin D1)
Cn1cc(S(=O)(=O)N2CC[C@@H](Nc3ncc(C(F)(F)F)c(-c4cc(C(N)=O)cs4)n3)[C@H](F)C2)cn1 [Example 13, 5-(2-(((3R,4R)-3-fluoro-1-((1-methyl-1H-pyrazol-4-yl)sulfonyl)piperidin-4-yl)amino)-5-(trifluoromethyl)pyrimidin-4-yl)thiophene-3-carboxamide]	≤ 100 nM	≤ 100 nM	≤ 100 nM
Cn1cnc(S(=O)(=O)N2CC[C@@H](Nc3ncc(C(F)(F)F)c(-c4cc(C(N)=O)cs4)n3)[C@H](F)C2)c1 [Example 14, 5-(2-(((3R,4R)-3-fluoro-1-((1-methyl-1H-imidazol-4-yl)sulfonyl)piperidin-4-yl)amino)-5-(trifluoromethyl)pyrimidin-4-yl)thiophene-3-carboxamide]	≤ 100 nM	100 to 500 nM	≤ 100 nM
Cc1sc(-c2nc(N[C@H]3CCN(S(=O)(=O)c4cnn(C)c4)C[C@H]3F)ncc2C(F)(F)F)cc1C(N)=O [Example 15, 5-(2-(((3R,4S)-3-fluoro-1-((1-methyl-1H-pyrazol-4-yl)sulfonyl)piperidin-4-yl)amino)-5-(trifluoromethyl)pyrimidin-4-yl)-2-methylthiophene-3-carboxamide]	≤ 100 nM	≤ 100 nM	≤ 100 nM
Cc1sc(-c2nc(N[C@H]3CCN(S(=O)(=O)c4cn(C)cn4)C[C@H]3F)ncc2C(F)(F)F)cc1C(N)=O [Example 16, 5-(2-(((3R,4S)-3-fluoro-1-((1-methyl-1H-imidazol-4-yl)sulfonyl)piperidin-4-yl)amino)-5-(trifluoromethyl)pyrimidin-4-yl)-2-methylthiophene-3-carboxamide]	≤ 100 nM	≤ 100 nM	≤ 100 nM
Cc1sc(-c2nc(N[C@@H]3CCN(S(=O)(=O)c4cnn(C)c4)C[C@H]3F)ncc2C(F)(F)F)cc1C(N)=O [Example 17, 5-(2-(((3R,4R)-3-fluoro-1-((1-methyl-1H-pyrazol-4-yl)sulfonyl)piperidin-4-yl)amino)-5-(trifluoromethyl)pyrimidin-4-yl)-2-methylthiophene-3-carboxamide]	≤ 100 nM	≤ 100 nM	≤ 100 nM
Cc1sc(-c2nc(N[C@@H]3CCN(S(=O)(=O)c4cn(C)cn4)C[C@H]3F)ncc2C(F)(F)F)cc1C(N)=O [Example 18, 5-(2-(((3R,4R)-3-fluoro-1-((1-methyl-1H-imidazol-4-yl)sulfonyl)piperidin-4-yl)amino)-5-(trifluoromethyl)pyrimidin-4-yl)-2-methylthiophene-3-carboxamide]	≤ 100 nM	≤ 100 nM	≤ 100 nM
C[C@@H]1CN(S(=O)(=O)c2cnn(C)c2)CC[C@@H]1Nc1ncc(C(F)(F)F)c(-c2cc(C(N)=O)cs2)n1 [Example 19, 5-(2-(((3R,4S)-3-methyl-1-((1-methyl-1H-pyrazol-4-yl)sulfonyl)piperidin-4-yl)amino)-5-(trifluoromethyl)pyrimidin-4-yl)thiophene-3-carboxamide]	≤ 100 nM	≤ 100 nM	≤ 100 nM
C[C@@H]1CN(S(=O)(=O)c2cn(C)cn2)CC[C@@H]1Nc1ncc(C(F)(F)F)c(-c2cc(C(N)=O)cs2)n1 [Example 20, 5-(2-(((3R,4S)-3-methyl-1-((1-methyl-1H-imidazol-4-yl)sulfonyl)piperidin-4-yl)amino)-5-(trifluoromethyl)pyrimidin-4-yl)thiophene-3-carboxamide]	≤ 100 nM	100 to 500 nM	≤ 100 nM
C[C@@H]1CN(S(=O)(=O)c2c[nH]cn2)CC[C@@H]1Nc1ncc(C(F)(F)F)c(-c2cc(C(N)=O)cs2)n1 [Example 21, 5-(2-(((3R,4S)-1-((1H-imidazol-4-yl)sulfonyl)-3-methylpiperidin-4-yl)amino)-5-(trifluoromethyl)pyrimidin-4-yl)thiophene-3-carboxamide]	≤ 100 nM	100 to 500 nM	100 to 500 nM
C[C@@H]1CN(S(=O)(=O)c2cnc3cccnn23)CC[C@@H]1Nc1ncc(C(F)(F)F)c(-c2cc(C(N)=O)cs2)n1 [Example 22, 5-(2-(((3R,4S)-1-(imidazo[1,2-b]pyridazin-3-ylsulfonyl)-3-methylpiperidin-4-yl)amino)-5-(trifluoromethyl)pyrimidin-4-yl)thiophene-3-carboxamide]	≤ 100 nM	≤ 100 nM	100 to 500 nM
Cc1sc(-c2nc(N[C@H]3CCN(S(=O)(=O)c4cnn(C)c4)C[C@H]3C)ncc2C(F)(F)F)cc1C(N)=O [Example 23, 2-methyl-5-(2-(((3R,4S)-3-methyl-1-((1-methyl-1H-pyrazol-4-yl)sulfonyl)piperidin-4-yl)amino)-5-(trifluoromethyl)pyrimidin-4-yl)thiophene-3-carboxamide]	≤ 100 nM	≤ 100 nM	≤ 100 nM
Cc1sc(-c2nc(N[C@H]3CCN(S(=O)(=O)c4cn(C)cn4)C[C@H]3C)ncc2C(F)(F)F)cc1C(N)=O [Example 24, 2-methyl-5-(2-(((3R,4S)-3-methyl-1-((1-methyl-1H-imidazol-4-yl)sulfonyl)piperidin-4-yl)amino)-5-(trifluoromethyl)pyrimidin-4-yl)thiophene-3-carboxamide]	≤ 100 nM	≤ 100 nM	≤ 100 nM
